Entries after “also recorded” stand apart in the source; their conditions may differ. Blank lines part the entries; values can stand above or below the compound they belong to.
Key:
[1] = cited from earlier work
[2] = system: human ventricular cardiac tissue strips (hvCTS); assay: Contractility of matured human ventricular cardiac tissue strips (hvCTS), twitch force from post deflection; type: cell-based; conditions: for effect on relaxation time / effect on developed force: 1.5 Hz, 10 minutes after each dose; for effect on developed force: matured hvCTS with positive force frequency relationship, day 24
From the text: FIG. 5 discloses the dose-dependent effects of stereoisomers of Compounds 6 on developed force in human cardiac tissue strips that were subjected to maturation protocol (see description below in the section entitled “Maturation of hvCTS”) with maturation media and electrical stimulation of 0.5 Hz from day 7-10, 1.0 Hz from day 10-13, 1.5 Hz from day 13-15, 2.0 Hz from day 16-19, 2.5 Hz from day 19-22 and 3.0 from day 22-24. Contractile data were collected at day 24 post-hvCTS fabrication. Developed forces were measured at 1.5 Hz, 10 minutes after administration of each dose of each stereoisomer. Only hvCTSs with positive force frequency relationships (+FFRs) were tested.
Contractile data were collected at day 24 post-hvCTS fabrication. Developed forces were measured at 1.5 Hz, 10 minutes after administration of each dose of the stereoisomer. Only hvCTSs with positive force frequency relationships (+FFRs) were tested.
(§1) To investigate the effects of carboxamide compounds as SUMOylation activators, the compounds were subjected to an ATP-based assay of SUMO E1 ligase activity. The racemic mixture of each compound was first tested with the SUMO E1 ligase assay to test for SUMO activation activity. Compounds with no SUMO E1 ligase activity were excluded. For compounds with recorded SUMO E1 ligase activity, their four pure stereoisomers were tested for SUMO E1 ligase activity by measuring the adenosine monophosphate (AMP) produced from the E1 ligase reaction as described below. Each pure stereoisomer was also subjected to functional analysis in engineered cardiac tissues (FIG. 3A). The pure stereoisomers of compounds with SUMO E1 ligase activity were administered to human ventricular cardiac tissue strips that had been subjected to a maturation protocol (see below). […] Stereoisomers that could induce SERCA2a SUMOylation were further tested for their inotropic effects, in hvCTS models of cardiomyopathy and heart failure, by fabrication of hvCTS with cardiomyocytes derived from human induced pluripotent stem cells (i.e., hiPSCs) of patients with cardiomyopathy.
The effects of compounds on cardiac muscle function as evaluated by the Novoheart hvCTS assay are derived from tracings of twitch force versus time. The twitch force may be calculated from measurements of end-post deflection based on a published beam-bending equation as previously described.^29, 30 The twitch force tracings are then analyzed from each “heartbeat” of the tissue, and averaged over multiple beats to extract metrics related to the beat rate frequency and beat rate variability, the passive and active tissue forces, and the contraction and relaxation kinetics, as detailed previously in the field^29-32, and briefly described as follows:
For each beat, the “passive (or diastolic) force” is the minimum value of the twitch force; the “active (or systolic) force” is the maximum value of the twitch force; and the “contractile (or developed) force” is the difference between the systolic and diastolic forces.
“Contractile kinetics”, in some aspects, are analyzed by examining the twitch force tracing during the increase from the diastolic minimum to the systolic maximum portion of the curve, and these can include the duration of rise time from diastolic to systolic force and related metrics (e.g. duration of rise time from 5% maximum to 95% maximum force, and the like), the area under the curve of rise time from minimum to maximum force, the maximum rate of change of force versus time during contraction (max+dF/dt), and other related metrics. […]

SUMO E1 ligase protein = target: T1, SUMO E1 ligase protein (Homo sapiens, UniProt Q9UBE0+Q9UBT2); assay: In vitro SUMO E1 ATP hydrolysis assay for SUMO E1 ligase activity (AMP produced, luciferase luminescence); type: biochemical; conditions: racemic mixtures; for SUMO E1 activity (luminescence), ranking among the 11 compounds: 1 μM concentration; for dose-dependent effect in SUMO E1 assays compared with control compound N106: luminescence, FIG. 4B
T1 sequence (Q9UBE0 1-346): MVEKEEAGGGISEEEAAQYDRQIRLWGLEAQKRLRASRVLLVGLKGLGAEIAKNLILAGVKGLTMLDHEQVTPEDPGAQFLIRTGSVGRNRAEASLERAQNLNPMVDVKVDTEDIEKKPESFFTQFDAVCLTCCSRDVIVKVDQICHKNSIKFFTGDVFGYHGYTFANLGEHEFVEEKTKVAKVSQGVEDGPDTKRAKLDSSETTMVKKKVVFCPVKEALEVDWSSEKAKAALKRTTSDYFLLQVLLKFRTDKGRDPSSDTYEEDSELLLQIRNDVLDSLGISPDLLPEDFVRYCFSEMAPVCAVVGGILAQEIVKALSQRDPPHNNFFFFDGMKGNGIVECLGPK
T1 sequence (Q9UBT2 1-640): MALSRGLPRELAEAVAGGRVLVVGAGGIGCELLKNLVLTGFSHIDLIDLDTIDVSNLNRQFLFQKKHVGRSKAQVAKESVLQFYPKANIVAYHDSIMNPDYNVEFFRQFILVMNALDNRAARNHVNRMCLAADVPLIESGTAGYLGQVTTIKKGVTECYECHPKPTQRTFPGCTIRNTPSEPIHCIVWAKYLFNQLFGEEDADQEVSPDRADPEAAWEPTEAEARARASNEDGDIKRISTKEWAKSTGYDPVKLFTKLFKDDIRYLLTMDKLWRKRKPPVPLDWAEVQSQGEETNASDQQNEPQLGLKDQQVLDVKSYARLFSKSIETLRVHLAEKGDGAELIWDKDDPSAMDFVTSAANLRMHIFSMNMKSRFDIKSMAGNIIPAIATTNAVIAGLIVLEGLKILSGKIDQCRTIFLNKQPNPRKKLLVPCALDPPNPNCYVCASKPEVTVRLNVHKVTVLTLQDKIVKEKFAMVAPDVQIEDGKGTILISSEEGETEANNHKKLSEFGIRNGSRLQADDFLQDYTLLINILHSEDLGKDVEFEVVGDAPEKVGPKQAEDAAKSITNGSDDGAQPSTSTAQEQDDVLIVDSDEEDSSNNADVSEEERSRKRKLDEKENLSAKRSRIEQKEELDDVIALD
Experimental: as §1
Stereoisomers of the test compounds were incubated with SUMO E1 ligase protein and ATP. E1 ligase activation by the test compound was determined by measuring the AMP produced during the enzymatic reaction after removal of the remaining ATP by ATP adenyl cyclase and converting AMP to ADP by polyphosphate-AMP phosphotransferase. The converted ADP was further converted to ATP using […] and detected through luciferase reaction.

SMILES: COc1ccc(-c2nnc(Nc3nc4c(OC)cccc4s3)o2)cc1 [Compound N106, N-(4-methoxybenzo[d]thiazol-2-yl)-5-(4-methoxyphenyl)-1,3,4-oxadiazol-2-amine]
half-life in vivo [1]: too short

SMILES: C[C@H](NC(=O)[C@H]1CC(=O)N(c2cccnc2)C1)c1cnn2ccccc12 [Compound 9-2, (S)-5-oxo-N—((S)-1-(pyrazolo[1,5-a]pyridin-3-yl)ethyl)-1-(pyridin-3-yl) pyrrolidine-3-carboxamide]
effect on relaxation time ([2]; matured hvCTS): decrease in relaxation time that was dose dependent

SMILES: C[C@H](NC(=O)[C@H]1CC(=O)N(c2ccc(C(=O)c3ccccc3)cc2)C1)c1cnn2ccccc12 [Compound 6-2, 1-(4-benzoylphenyl)-(S)-5-oxo-N—((S)-1-(pyrazolo[1,5-a]pyridin-3-yl)ethyl) pyrrolidine-3-carboxamide]
concentration at which the increase in developed force peaked ([2]; matured hvCTS): 1 µM
contractility (overall conclusion) ([2]; matured hvCTS): improved
effect on contraction time ([2]; matured hvCTS): did not show any significant difference
effect on passive tension ([2]; matured hvCTS): did not show any significant difference
effect on developed force [2]: positive inotropic effects; also recorded: concentration-dependent increase
effect on relaxation time ([2]; matured hvCTS): did not show any significant difference

SMILES: C[C@H](NC(=O)[C@@H]1CC(=O)N(c2cccnc2)C1)c1cnn2ccccc12 [Compound 9-3, (R)-5-oxo-N—((S)-1-(pyrazolo[1,5-a]pyridin-3-yl)ethyl)-1-(pyridin-3-yl) pyrrolidine-3-carboxamide]
contractile kinetics (overall conclusion) ([2]; matured hvCTS): improved
effect on relaxation time ([2]; matured hvCTS): decrease in relaxation time that was dose dependent
decrease in relaxation time ([2]; matured hvCTS, at 10 μM): 15%

SUMO E1 activity (luminescence), ranking among the 11 compounds (SUMO E1 ligase protein): largest effects; also recorded: highest
SMILES: CC(NC(=O)C1CC(=O)N(c2cnc3ccccc3c2)C1)c1cnn2ccccc12 (mixture of isomers) [Compound 11, 5-oxo-N-(1-(pyrazolo[1,5-a]pyridin-3-yl)ethyl)-1-(quinolin-3-yl) pyrrolidine-3-carboxamide]

SUMO E1 activity (luminescence), ranking among the 11 compounds (SUMO E1 ligase protein): largest effects; also recorded: highest
SMILES: CC(NC(=O)C1CC(=O)N(c2ccc(C(=O)c3ccccc3)cc2)C1)c1cnn2ccccc12 (mixture of isomers) [Compound 6, 1-(4-benzoylphenyl)-5-oxo-N-(1-(pyrazolo[1,5-a]pyridin-3-yl)ethyl) pyrrolidine-3-carboxamide]
dose-dependent effect in SUMO E1 assays compared with control compound N106 (SUMO E1 ligase protein): larger effects than the control compound N106

SMILES: C[C@@H](NC(=O)[C@@H]1CC(=O)N(c2ccc(C(=O)c3ccccc3)cc2)C1)c1cnn2ccccc12 [Compound 6-1, 1-(4-benzoylphenyl)-(R)-5-oxo-N—((R)-1-(pyrazolo[1,5-a]pyridin-3-yl)ethyl) pyrrolidine-3-carboxamide]
concentration at which the increase in developed force peaked ([2]; matured hvCTS): 1 µM
contractility (overall conclusion) ([2]; matured hvCTS): improved
effect on contraction time ([2]; matured hvCTS): did not show any significant difference
effect on passive tension ([2]; matured hvCTS): did not show any significant difference
effect on developed force [2]: positive inotropic effects; also recorded: concentration-dependent increase
effect on relaxation time ([2]; matured hvCTS): did not show any significant difference

SMILES: C[C@@H](NC(=O)[C@H]1CC(=O)N(c2cccnc2)C1)c1cnn2ccccc12 [Compound 9-4, (S)-5-oxo-N—((R)-1-(pyrazolo[1,5-a]pyridin-3-yl)ethyl)-1-(pyridin-3-yl) pyrrolidine-3-carboxamide]
inhibition at 1 µM ([2]; Homo sapiens, 10 min, matured hvCTS, at 1 μM, read-out: maximum decrease in developed force): 10%
effect on developed force [2]: small but significant dose-dependent decrease
effect on relaxation time ([2]; matured hvCTS): decrease in relaxation time that was dose dependent

SMILES: C[C@@H](NC(=O)[C@@H]1CC(=O)N(c2cccnc2)C1)c1cnn2ccccc12 [Compound 9-1, (R)-5-oxo-N—((R)-1-(pyrazolo[1,5-a]pyridin-3-yl)ethyl)-1-(pyridin-3-yl) pyrrolidine-3-carboxamide]
effect on relaxation time ([2]; matured hvCTS): decrease in relaxation time that was dose dependent

SUMO E1 activity (luminescence), ranking among the 11 compounds (SUMO E1 ligase protein): largest effects; also recorded: highest
SMILES: CC(NC(=O)C1CC(=O)N(c2cccnc2)C1)c1cnn2ccccc12 (mixture of isomers) [Compound 9, 5-oxo-N-(1-(pyrazolo[1,5-a]pyridin-3-yl)ethyl)-1-(pyridin-3-yl) pyrrolidine-3-carboxamide]
dose-dependent effect in SUMO E1 assays compared with control compound N106 (SUMO E1 ligase protein): larger effects than the control compound N106

Source: US20260284019A1, “CARBOXAMIDE COMPOUNDS AS SUMO ACTIVATING COMPOUNDS FOR TREATMENT OF CARDIOVASCULAR DISEASES” (NOVOHEART INTERNATIONAL LIMITED, priority 2023, published 2026)
